In ChEMBL document CHEMBL1201862, “PubChem BioAssay data set” (2004):
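Compound exposure: 48 hours, 5 concentrations, 96-well plates. GI50 marks 50% less growth.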 Active and inactive are the calls of the source. No stated cut-off is given here; in the data, active = GI50 up to about 1.1 µM and inactive = higher.

Key:
Assay in all cases: NCI-60 cell line screen, 48 h
[1] = system: COLO 205
[2] = system: OVCAR-3
[3] = system: SNB-19
[4] = system: SK-MEL-2
[5] = system: SK-OV-3
[6] = system: KM12
[7] = system: MOLT-4
[8] = system: HCT-116
[9] = system: SN12C
[10] = system: NCI-H522
[11] = system: HOP-92
[12] = system: MDA-MB-231
[13] = system: RXF 393
[14] = system: SK-MEL-5
[15] = system: ACHN
[16] = system: Malme-3M
[17] = system: T47D
[18] = system: EKVX
[19] = system: SW-620
[20] = system: MDA-N

Measured: GI50

Cn1nnc2c(C(N)=O)ncn2c1=O [TEMOZOLOMIDE]
inactive: [1] > 100 µM | [2] > 100 µM | [3] > 100 µM | [4] > 100 µM | [5] 58.7 µM | [6] > 100 µM | [7] 83.6 µM | [8] > 100 µM | [9] > 100 µM | [10] > 100 µM | [11] > 100 µM | [12] > 100 µM | [13] > 100 µM | [14] > 100 µM | [15] > 100 µM | [16] > 100 µM | [17] > 100 µM | [18] > 100 µM | [19] > 100 µM | [20] > 100 µM

CC(=O)ON(C(C)=O)c1ccc(-c2nc3ccccc3s2)cc1
inactive: [1] 18.7 µM | [2] 22.1 µM | [3] 34.7 µM | [4] 24.8 µM | [5] 31.3 µM | [6] 15.1 µM | [7] 13.3 µM | [8] 24.5 µM | [9] 40.7 µM | [10] 15.1 µM | [11] 34.7 µM | [12] 25 µM | [13] 35.3 µM | [14] 24.5 µM | [15] 19.4 µM | [16] 14.7 µM | [17] 17.4 µM | [18] 13.1 µM | [19] 26.2 µM | [20] 27.2 µM

COc1ccc(-c2cc(=O)c3c(OC)c(OC)c(OC)c(OC)c3o2)cc1 [TANGERETIN]
inactive: [1] 55.7 µM | [2] 42.4 µM | [3] > 100 µM | [4] 90.6 µM | [5] 99.8 µM | [7] 64.6 µM | [8] 34 µM | [9] 65.2 µM | [10] 15.3 µM | [11] 20.2 µM | [12] 28.8 µM | [13] 45.4 µM | [14] 27.7 µM | [15] 57 µM | [16] 84.1 µM | [17] 17 µM | [18] 49.1 µM | [19] 67.8 µM | [20] 54.7 µM

CCC1(CC)SCc2nc3ccccc3n21
inactive: [1] 19.8 µM | [2] 32.1 µM | [3] 53.2 µM | [4] 27.5 µM | [5] 38.5 µM | [6] 23.9 µM | [7] 22.8 µM | [8] 23.9 µM | [9] 49.8 µM | [10] 37.6 µM | [11] 18 µM | [12] 29.6 µM | [13] 32.2 µM | [14] 20.9 µM | [15] 30.1 µM | [16] 22.4 µM | [17] 49.7 µM | [18] 27.3 µM | [19] 58.6 µM | [20] 34.9 µM

C=C1C(=O)OC2/C=C(\C)C(=O)CC3OC(C)(C)OC3(C)CC(OC(=O)/C(C)=C/C)C12 (stereo unspecified)
inactive: [1] 6.35 µM | [2] 10.8 µM | [3] > 80.9 µM | [4] 28.1 µM | [5] 55.5 µM | [6] 17.9 µM | [7] 6.61 µM | [8] 7.43 µM | [9] 20.7 µM | [10] 2.99 µM | [11] 13.6 µM | [12] 23.6 µM | [13] 12 µM | [14] 14.7 µM | [15] 3.68 µM | [16] 10.9 µM | [17] 17.6 µM | [18] 14.2 µM | [19] 4.69 µM | [20] 13.2 µM

Cc1cc(=O)oc2cc(O)c(CN(C)CC(=O)O)cc12
inactive: [1] > 100 µM | [3] > 100 µM | [4] > 100 µM | [6] > 100 µM | [8] > 100 µM | [9] > 100 µM | [10] > 100 µM | [11] > 100 µM | [12] > 100 µM | [13] > 100 µM | [14] > 100 µM | [15] > 100 µM | [16] > 100 µM | [17] > 100 µM | [18] > 100 µM | [19] > 100 µM | [20] > 100 µM

CCOC(=O)c1c(C)n(Cc2ccccc2)c(=O)c2ccccc2c(=O)c2c(=O)ccc(=O)c1=2
inactive: [1] 43.4 µM | [2] 34.1 µM | [3] > 100 µM | [4] > 100 µM | [5] > 100 µM | [6] > 100 µM | [7] 54.7 µM | [8] 18.2 µM | [9] 41 µM | [10] 23.9 µM | [11] 14.9 µM | [12] 65 µM | [13] 23.8 µM | [14] > 100 µM | [15] 30.7 µM | [16] 19.9 µM | [17] 30.6 µM | [18] > 100 µM | [19] 33.3 µM | [20] 73.8 µM

CC1C(=O)C(C)C(c2ccccc2)N(N=O)C1c1ccccc1 (stereo unspecified)
inactive: [1] > 553 µM | [2] 197 µM | [3] 64.4 µM | [4] 224 µM | [5] 37.2 µM | [6] > 439 µM | [7] > 695 µM | [8] 127 µM | [9] 400 µM | [10] > 78.3 µM | [11] 24.9 µM | [12] 85.3 µM | [13] 36.9 µM | [14] > 410 µM | [15] 143 µM | [16] > 318 µM | [17] 60.8 µM | [18] > 100 µM | [19] > 100 µM | [20] 134 µM

CCc1cccc(CC)c1NC(=S)NC(=O)c1ccc(Br)cc1
inactive: [1] 18.1 µM | [2] 36.3 µM | [3] 40.9 µM | [4] 18.6 µM | [5] 64.9 µM | [6] 33.8 µM | [7] 18.8 µM | [8] 28.8 µM | [9] 32.6 µM | [10] 17.6 µM | [11] 18.5 µM | [12] 29 µM | [13] 19.1 µM | [14] 26.4 µM | [15] 32.4 µM | [16] 18.4 µM | [17] 21.9 µM | [18] 23.6 µM | [19] 36.5 µM | [20] 30.4 µM

CC(CN(C)C)C(O)(c1ccccc1)c1ccccc1 (stereo unspecified)
inactive: [1] > 100 µM | [2] > 100 µM | [3] > 100 µM | [4] > 100 µM | [5] > 100 µM | [6] > 100 µM | [7] > 100 µM | [8] > 100 µM | [9] > 100 µM | [10] > 100 µM | [11] > 100 µM | [12] > 100 µM | [13] > 100 µM | [14] > 100 µM | [15] > 100 µM | [16] > 100 µM | [17] > 100 µM | [18] > 100 µM | [19] > 100 µM | [20] > 100 µM

N#CC(C#N)=C(N)/C(C#N)=C/c1ccc(O)c(O)c1
inactive: [1] > 65.2 µM | [2] 37.5 µM | [3] > 92.5 µM | [4] > 100 µM | [5] > 100 µM | [6] 69.5 µM | [7] 47.9 µM | [8] 54 µM | [10] > 61.2 µM | [11] 43.6 µM | [12] > 100 µM | [13] > 100 µM | [14] 78.9 µM | [15] > 85.7 µM | [16] > 100 µM | [17] 53.7 µM | [18] > 70.3 µM | [19] 50.2 µM | [20] > 100 µM

CN(C)Cc1nsc(N(C)C)n1
inactive: [1] > 100 µM | [2] > 100 µM | [3] > 100 µM | [4] > 100 µM | [5] > 100 µM | [6] > 100 µM | [8] > 100 µM | [9] > 100 µM | [10] > 100 µM | [11] > 100 µM | [12] > 100 µM | [13] > 100 µM | [14] > 100 µM | [15] > 100 µM | [16] > 100 µM | [17] > 100 µM | [18] > 100 µM | [19] > 100 µM | [20] > 100 µM

CCOC(=O)c1ccc(NC(NC(=O)CC)(C(F)(F)F)C(F)(F)F)cc1
inactive: [1] > 100 µM | [2] > 100 µM | [3] > 100 µM | [4] > 100 µM | [5] > 100 µM | [6] 59.6 µM | [7] 55.5 µM | [8] > 100 µM | [10] > 100 µM | [11] > 100 µM | [12] > 100 µM | [13] > 100 µM | [14] > 100 µM | [15] 55 µM | [16] > 100 µM | [17] > 100 µM | [18] > 100 µM | [19] > 100 µM | [20] > 100 µM

C=C(C)C1CCC2=CC(CC3(C)OC3C3=CC(C(=O)OC)=C(C1)O3)OC2=O (stereo unspecified)
inactive: [2] > 100 µM | [3] > 100 µM | [4] > 100 µM | [6] 98.4 µM | [7] 36.9 µM | [8] > 100 µM | [9] > 100 µM | [10] 85.9 µM | [11] 88.3 µM | [12] 93.3 µM | [13] 52.5 µM | [14] 72.3 µM | [15] > 100 µM | [16] > 100 µM | [17] 32.9 µM | [18] > 100 µM | [19] > 100 µM | [20] > 100 µM
